Measurements: ChEMBL document CHEMBL3797145, “Synthesis and evaluation of carbamate and aryl ether substituted pyrazinones as corticotropin releasing factor-1 (CRF₁) receptor antagonists” (Bioorg Med Chem Lett, 2016)

Key:
[1] = target: T1, Corticotropin-releasing factor receptor 1 (Rattus norvegicus, UniProt P35353); experiment: Displacement of [125I]Tyr-ovine-CRF from CRF1 receptor in rat frontal cortex homogenate after 2 hrs by gamma counting analysis; format: tissue-based
T1 sequence (P35353 whole entry): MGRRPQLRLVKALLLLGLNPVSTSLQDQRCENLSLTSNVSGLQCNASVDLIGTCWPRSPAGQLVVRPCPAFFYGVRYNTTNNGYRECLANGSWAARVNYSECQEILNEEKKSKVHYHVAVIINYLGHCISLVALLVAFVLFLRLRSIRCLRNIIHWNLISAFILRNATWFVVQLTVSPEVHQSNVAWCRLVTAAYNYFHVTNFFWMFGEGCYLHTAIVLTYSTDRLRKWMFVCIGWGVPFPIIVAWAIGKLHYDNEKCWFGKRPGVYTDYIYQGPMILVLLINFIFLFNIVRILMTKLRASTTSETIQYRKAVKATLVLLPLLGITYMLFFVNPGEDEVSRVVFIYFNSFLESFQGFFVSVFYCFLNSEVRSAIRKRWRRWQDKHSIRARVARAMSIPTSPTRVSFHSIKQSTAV

[2] = Metabolic stability in human liver microsomes assessed as compound remaining after 10 mins; format: ADME; conditions: read-out: Stability
[3] = Metabolic stability in rat liver microsomes assessed as compound remaining after 10 mins; format: ADME; conditions: read-out: Stability
[4] = target: T2, Corticotropin-releasing factor receptor 1 (Homo sapiens) (UniProt P34998); experiment: (§1) Antagonist activity at CRF1 receptor in human Y79 cells assessed as inhibition of CRF-stimulated cAMP production preincubated for 30 mins followed by CRF addition measured after 30 mins by HTRF assay; format: functional, cell-based
T2 sequence (whole entry): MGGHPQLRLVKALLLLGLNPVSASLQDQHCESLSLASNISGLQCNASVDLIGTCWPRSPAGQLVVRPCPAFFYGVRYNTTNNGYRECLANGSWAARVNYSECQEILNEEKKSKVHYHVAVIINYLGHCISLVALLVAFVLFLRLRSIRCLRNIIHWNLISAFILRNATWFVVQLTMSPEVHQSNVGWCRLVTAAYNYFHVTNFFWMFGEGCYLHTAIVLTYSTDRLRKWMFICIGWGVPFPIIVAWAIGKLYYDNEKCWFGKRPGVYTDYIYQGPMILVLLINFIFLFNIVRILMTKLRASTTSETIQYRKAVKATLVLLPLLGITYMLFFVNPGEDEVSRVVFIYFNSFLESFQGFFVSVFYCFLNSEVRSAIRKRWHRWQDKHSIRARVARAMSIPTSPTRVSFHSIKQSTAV

[5] = target: T3, Corticotropin-releasing factor receptor 1 (Homo sapiens, UniProt P34998); experiment: as §1; format: functional, cell-based
T3 sequence (P34998 whole entry): T2 sequence (whole entry)

COc1nc(C)c(Nc2nc(Cl)cn([C@H](COC(=O)Nc3ccc(Cl)cc3Cl)C3CC3)c2=O)cc1C
IC50 [1]: 1.7 nM

COc1nc(C)c(Nc2nc(Cl)cn([C@H](COC(C)=O)C3CC3)c2=O)cc1C
IC50 [1]: 5.3 nM

CCCNC(=O)OC[C@H](C1CC1)n1cc(Cl)nc(Nc2cc(C)c(OC)nc2C)c1=O
IC50 [1]: 10 nM

COc1nc(C)c(Nc2nc(Cl)cn([C@H](CO)C3CC3)c2=O)cc1C
IC50 [1]: 88 nM

COc1nc(C)c(Nc2nc(Cl)cn([C@H](COC(=O)c3ccncc3)C3CC3)c2=O)cc1C
IC50 [1]: 4.9 nM

COc1nc(C)c(Nc2nc(Cl)cn([C@H](COC(=O)c3ccccn3)C3CC3)c2=O)cc1C
IC50 [1]: 67 nM

COc1nc(C)c(Nc2nc(Cl)cn([C@H](COC(=O)c3ccccc3)C3CC3)c2=O)cc1C
IC50 [1]: 1.5 nM

COc1nc(C)c(Nc2nc(Cl)cn([C@H](COc3ccccn3)C3CC3)c2=O)cc1C
IC50 [1]: 1.2 nM

COc1nc(C)c(Nc2nc(Cl)cn([C@H](COC(=O)Nc3ccc(Cl)cc3)C3CC3)c2=O)cc1C
IC50 [1]: 1.6 nM

COc1nc(C)c(Nc2nc(Cl)cn([C@H](COC(=O)Nc3ccccc3)C3CC3)c2=O)cc1C
IC50 [1]: 1.5 nM
remaining at 10 min [2]: 32%
remaining at 10 min [3]: 33%

COc1nc(C)c(Nc2nc(Cl)cn([C@H](COc3cc(C#N)ccn3)C3CC3)c2=O)cc1C
IC50 [1]: 6.8 nM

COc1nc(C)c(Nc2nc(Cl)cn([C@H](COC(=O)Nc3ccccc3Cl)C3CC3)c2=O)cc1C
IC50 [1]: 1.5 nM

COC[C@H](C1CC1)n1cc(Cl)nc(Nc2cc(C)c(OC(F)F)nc2C)c1=O
IC50 [1]: 0.29 nM

COc1nc(C)c(Nc2nc(Cl)cn([C@H](COC(=O)Nc3cc(Cl)cc(Cl)c3)C3CC3)c2=O)cc1C
IC50 [1]: 1.7 nM

CCNC(=O)OC[C@H](C1CC1)n1cc(Cl)nc(Nc2cc(C)c(OC)nc2C)c1=O
IC50 [1]: 14 nM

COc1nc(C)c(Nc2nc(Cl)cn([C@H](COC(=O)Nc3cccnc3)C3CC3)c2=O)cc1C
IC50 [1]: 10 nM
remaining at 10 min [2]: 36%
remaining at 10 min [3]: 35%

Cc1cc(Nc2nc(Cl)cn([C@H](COC(=O)Nc3cccnc3)C3CC3)c2=O)c(C)nc1OC(F)F
IC50 [1]: 1.9 nM
remaining at 10 min [2]: 71%
remaining at 10 min [3]: 52%

COc1ccc(NC(=O)OC[C@H](C2CC2)n2cc(Cl)nc(Nc3cc(C)c(OC)nc3C)c2=O)c(C)n1
IC50 [1]: 9.2 nM

COc1nc(C)c(Nc2nc(Cl)cn([C@H](COc3ccc(C(F)(F)F)cn3)C3CC3)c2=O)cc1C
IC50 [1]: 1.6 nM

COc1nc(C)c(Nc2nc(Cl)cn([C@H](COc3ccc(C#N)cn3)C3CC3)c2=O)cc1C
IC50 [1]: 7.7 nM

COc1nc(C)c(Nc2nc(Cl)cn([C@H](COc3cc(Br)ccn3)C3CC3)c2=O)cc1C
IC50 [1]: 1.5 nM

COc1nc(C)c(Nc2nc(Cl)cn([C@H](COC(=O)Nc3cccc(C#N)c3)C3CC3)c2=O)cc1C
IC50 [1]: 1.3 nM

COc1nc(C)c(Nc2nc(Cl)cn([C@H](COC(=O)c3cccnc3)C3CC3)c2=O)cc1C
IC50 [1]: 5.2 nM

Cc1cc(Nc2nc(Cl)cn([C@H](COC(=O)Nc3ccccc3)C3CC3)c2=O)c(C)nc1OC(F)F
inhibition [4]: Dose-dependent effect
IC50 [5]: 1.2 nM
remaining at 10 min [2]: 77%
remaining at 10 min [3]: 75%

COc1nc(C)c(Nc2nc(Cl)cn([C@H](COc3cccnc3)C3CC3)c2=O)cc1C
IC50 [1]: 6.7 nM
